These results are taken from PubChem BioAssay AID1963839 (Molecular Pharmacology Branch, DTP, NCI, 2024).

Values joined by “and” are separate entries in the source; they are usually repeats but may differ in a detail not shown here. Identical values can stand only once. Bounds are passed on as bounds.

The test system of this assay is 817829-284-R-J1-PDC complex spheroid viability. Nature of the assay: Anticancer human tumor 817829-284-R-J1-PDC patient-derived colon adenocarcinoma cell line growth inhibition [POLQ]. Conditions: for viability, T/C: stronger effect = lower value; for IC50: curve of compound. On the procedure:
Multicellular complex tumor spheroid response to Polymerase (POL) inhibitors (novobiocin, ART-558, RP6685) in combination with a variety of drugs and investigational agents in selected tumor cell lines
The POL inhibitors (novobiocin, ART-558, and RP6685) were evaluated both individually and in combination with standard of care and investigational anticancer small molecules within a complex spheroid model of solid tumors. . Complex spheroids include a stromal component modeled by human endothelial cells (HUVEC) and fibroblasts modeled by human mesenchymal stem cells (MSCs). The concentration ranges selected for each drug and investigational agent were based upon clinically achievable concentrations if the clinical Cmax of the agent was known.
Compounds. The drugs and investigational agents: novobiocin (NSC847541), ART-558 (NSC835418), RP-6685 (NSC848927), peposertib (NSC802822), ceralasertib (NSC780249), elimusertib (NSC800525), camonsertib (NSC841442), AZD-1390 (NSC803789), olaparib (NSC753686), talazoparib (NSC767125), rucaparib (NSC756644), sotorasib (NSC818433), MRTX-1133 (NSC836407), SN-38 (NSC673596), topotecan (NSC609699), epotoside (NSC141540), doxorubicin (NSC123127), gemcitabine (NSC613327), 5-fluorouracil (NSC19893), paclitaxel (NSC125973), vemurafenib (NSC761431), MSA-2 (NSC828583), SN-011 (NSC837082), adavosertib (NSC754352), prexasertib (NSC758257), carboplatin (NSC241240) and oxaliplatin (NSC266046), were obtained from the National Cancer Institute (NCI) Developmental Therapeutics Program Chemical Repository (21). The FDA-approved anticancer drug set is available from the Developmental Therapeutics Program at https://dtp.cancer.gov/organization/dscb/obtaining/. […] The stock solutions were prepared in dimethyl sulfoxide (DMSO, Sigma-Aldrich, St. Louis, MO, cat. D2650), except for the platinum compounds which were prepared in saline (Quality Biological, Gaithersburg, MD, cat. 114-055-101), at 800-fold the tested concentration and stored at -70 degrees C prior to their use. All drugs and investigational agents were tested over a range starting from a high concentration at or near the clinical Cmax and decreasing in half-log increments. If the clinical Cmax for an agent had not been determined, the highest concentration tested was 10 microM, except for SN-38, which was tested at a high concentration of 1 microM.
Cell Culture. All cells were maintained in an incubator at 37 degrees C and 5% CO2 with 95% humidity. The PDC lines were cultured according to standard operating procedures established by the NCI PDMR (https://pdmr.cancer.gov). Table 3 of the manuscript, lists the cell lines along with the number of the three cell types plated to form the mct-spheroids and media for tumor cell growth. After thawing, all PDC lines, except 997537-175-T-J1-PDC and 415267-285-R-J2-PDC, were cultured in Matrigel-coated flasks prepared with a working solution of 1X Ham's F-12 nutrient mix, without supplementation (Thermo Fisher Scientific, cat. 11765054), 100 U/mL penicillin-streptomycin (Thermo Fisher Scientific, cat. 15140122), and 2.5% Matrigel (Corning Inc., Corning, NY, cat. 354248) for the first three passages. The two PDC lines 997537-175-T-J1-PDC and 415267-285-R-J2-PDC were cultured on uncoated flasks. The 857933-349-R-J2-PDC line was cultured in 6C/Colon 1B media containing advanced DMEM/F-12 (Thermo Fisher Scientific, cat. 12634028), 10 mM HEPES (Thermo Fisher Scientific, cat. 15630080), 1X GlutaMAX supplement (Thermo Fisher Scientific, cat. 35050061), 0.1 mg/mL primocin (InvivoGen, San Diego, CA, cat. ant-pm-2), 10% defined fetal bovine serum, heat inactivated (HyClone Laboratories Inc., Logan, UT, cat. SH30070.03HI), 50% L-WRN conditioned media (ATCC, cat. CRL-3276), 1.25 mM N-Acetyl-L-cysteine (Sigma-Aldrich, cat. A9165), 10 mM nicotinamide (Sigma-Aldrich, cat. N0636), 1X B-27 supplement (Thermo Fisher Scientific, cat. 17504044), 1X N-2 supplement (Thermo Fisher Scientific, cat. […]
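Further: spheroids exposed to compounds for 7 days.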

Turning to `C#Cc1c(F)ccc2cc(O)cc(-c3ncc4c(N5CC6CCC(C5)N6)nc(OCC56CCCN5CC(F)C6)nc4c3F)c12` (stereo not given), the IC50 (in general, the concentration that gives 50% inhibition) is greater than 10000 nM. Besides, the viability, T/C (in general, the ratio of treated to control) (compound 0.0316 µM) is 95.2% and 94.8% and 96%. The viability, T/C (compound 0.1 µM) is 84.6% and 98.2% and 122%. In addition, for the setting “compound 0.316 µM”, the viability, T/C is 72% and 98.1% and 118%. Moreover, the viability, T/C (compound 1 µM) is 88.4% and 89% and 92.8%. Also, the viability, T/C (compound 3.16 µM) was 90.2% and 111% and 115%. Under “compound 10 µM”, the viability, T/C was 53.8% and 102% and 54.2%.

For `C=CC(=O)N1CCN(c2nc(=O)n(-c3c(C)ccnc3C(C)C)c3nc(-c4c(O)cccc4F)c(F)cc23)C(C)C1` (stereo not given), the IC50 was > 10000 nM and 8900 nM. The viability, T/C (compound 0.0316 µM) was 70% and 89.9% and 113%. The viability, T/C (compound 0.1 µM) is 93.6% and 105% and 95.7%. Further, the viability, T/C (compound 0.316 µM) was 103% and 97.2% and 99.5%. Where the note is “compound 1 µM”, the viability, T/C was 86.7% and 94.7% and 101%. The viability, T/C (compound 3.16 µM) is 88.8% and 90.2% and 102%. Also, where the note is “compound 10 µM”, the viability, T/C is 53% and 58.3% and 44.1%.

Regarding `C=CCn1c(=O)c2cnc(Nc3ccc(N4CCN(C)CC4)cc3)nc2n1-c1cccc(C(C)(C)O)n1`, the IC50 was 188 nM and 195 nM and 208 nM. For the same compound, the viability, T/C (compound 0.00316 µM) was 115% and 101% and 105%. Moreover, for the setting “compound 0.01 µM”, the viability, T/C was 93.7% and 84% and 89.8%. For the same compound, under “compound 0.0316 µM”, the viability, T/C was 71.1% and 89.5% and 98.8%. Under “compound 0.1 µM”, the viability, T/C is 77.6% and 72.5% and 64.8%. Moreover, for the setting “compound 0.316 µM”, the viability, T/C is 36.1% and 33.8% and 40.5%. Moreover, the viability, T/C (compound 1 µM) is 5.95% and 6.09% and 5.44%.

`CC(=O)O[C@H]1C(=O)[C@@]2(C)[C@H]([C@H](OC(=O)c3ccccc3)[C@]3(O)C[C@H](OC(=O)[C@H](O)[C@@H](NC(=O)c4ccccc4)c4ccccc4)C(C)=C1C3(C)C)[C@]1(OC(C)=O)CO[C@@H]1C[C@@H]2O`: the IC50 was less than 9.49 nM. In addition, the viability, T/C (compound 0.00949 µM) was 5.15% and 4.45% and 5.76%. Moreover, the viability, T/C (compound 0.03 µM) is 3.94% and 3.44% and 4.19%. The viability, T/C (compound 0.0949 µM) is 3.9% and 3.92% and 5.6%. The viability, T/C (compound 0.3 µM) was 4.36% and 3.82% and 4.56%. The viability, T/C (compound 0.949 µM) is 4.81% and 4.08% and 5.15%. Further, the viability, T/C (compound 3 µM) is 4.4% and 3.61% and 5.14%.

Consider `CC1COCCN1c1cc(-c2ccnn2C)c2ccnc(-c3ccn[nH]3)c2n1` (stereo not given), for which the IC50 is < 31.6 nM and 49.9 nM. Further, the viability, T/C (compound 0.0316 µM) is 33.8% and 33.3% and 74.6%. In addition, the viability, T/C (compound 0.1 µM) was 11.3% and 12.5% (2×). Also, under “compound 0.316 µM”, the viability, T/C was 7.44% and 7.37% and 5.59%. Besides, the viability, T/C (compound 1 µM) is 4.37% and 3.99% and 4.03%. Also, the viability, T/C (compound 3.16 µM) is 3.67% and 2.87% and 3.57%. For the same compound, the viability, T/C (compound 10 µM) was 2.72% and 2.9% and 2.76%.

As to `CC1COCCN1c1cc(C2(S(C)(=N)=O)CC2)nc(-c2ccnc3[nH]ccc23)n1` (stereo not given), the IC50 is 545 nM and 274 nM and 472 nM. Further, under “compound 0.0316 µM”, the viability, T/C was 110% and 98% and 105%. The viability, T/C (compound 0.1 µM) was 96.4% and 67.8% and 94.3%. Moreover, the viability, T/C (compound 0.316 µM) was 65% and 52.9% and 63.1%. In addition, the viability, T/C (compound 1 µM) is 33.9% and 23.4% and 25.4%. Further, the viability, T/C (compound 3.16 µM) is 8.76% and 7.96% and 7.97%. In addition, the viability, T/C (compound 10 µM) is 4.29% and 4.9% and 3.97%.

For `CCCS(=O)(=O)Nc1ccc(F)c(C(=O)c2c[nH]c3ncc(-c4ccc(Cl)cc4)cc23)c1F`, the IC50 is 3260 nM and 2920 nM and 3800 nM. Further, for the setting “compound 0.0316 µM”, the viability, T/C was 89.8% and 97% and 86.7%. The viability, T/C (compound 0.1 µM) was 87% and 72.4% and 57%. For the same compound, the viability, T/C (compound 0.316 µM) is 66.1% and 86.6% and 80.9%. The viability, T/C (compound 1 µM) was 72.1% and 59.4% and 61%. The viability, T/C (compound 3.16 µM) was 55.4% and 56.3% and 59.4%. For the same compound, for the setting “compound 10 µM”, the viability, T/C is 7.53% and 9.53% and 19.9%.

In the case of `CC[C@@]1(O)C(=O)OCc2c1cc1n(c2=O)Cc2cc3c(CN(C)C)c(O)ccc3nc2-1`, the IC50 was 4.5 nM and 7.57 nM and 6.12 nM. For the same compound, the viability, T/C (compound 0.000316 µM) was 89.9% and 104% and 89%. Under “compound 0.001 µM”, the viability, T/C is 72.3% and 95.7% and 74.1%. The viability, T/C (compound 0.00316 µM) is 55.4% and 82.4% and 60.1%. The viability, T/C (compound 0.01 µM) is 39.6% and 38.4% and 46%. Further, the viability, T/C (compound 0.0316 µM) is 22.9% and 25.4% and 21.7%. Moreover, the viability, T/C (compound 0.1 µM) was 15.2% and 16.8% and 14.6%.

For `CCc1c2c(nc3ccc(O)cc13)-c1cc3c(c(=O)n1C2)COC(=O)[C@]3(O)CC`, the IC50 is less than 3.16 nM. The viability, T/C (compound 0.00316 µM) is 19.4% and 20.1% and 25.3%. Besides, under “compound 0.01 µM”, the viability, T/C is 16.5% and 16.4% and 16.3%. In addition, the viability, T/C (compound 0.0316 µM) is 13.7% and 12.4% and 11.8%. Where the note is “compound 0.1 µM”, the viability, T/C was 7.6% and 9.24% and 7.39%. For the same compound, under “compound 0.316 µM”, the viability, T/C is 6.4% and 5.1% and 5.47%. For the same compound, the viability, T/C (compound 1 µM) is 3.09% and 2.77% and 3.28%.

As to `CCc1cc2c(N3CCc4c(cc(Cn5ccnc5)cc4-c4cn(C)nc4C(F)(F)F)C3=O)cc(C)nc2c(OC)n1`, the 50% inhibitory concentration (IC50) was 2800 nM and 1740 nM and 2830 nM. Also, where the note is “compound 0.0316 µM”, the viability, T/C was 88.4% and 75.3% and 76.3%. Besides, the viability, T/C (compound 0.1 µM) was 85.8% and 83.5% and 79.4%. Further, the viability, T/C (compound 0.316 µM) was 75.3% and 63.8% and 69.3%. Moreover, the viability, T/C (compound 1 µM) is 80.6% and 56.1% and 65.8%. Besides, the viability, T/C (compound 3.16 µM) is 46.4% and 44.7% and 47.9%. Besides, the viability, T/C (compound 10 µM) is 33.1% and 29.7% and 30.8%.
